What was measured:
MCR [1] = test: Effective concentration was measured against frog skin MCR cells at 10 e-4 10 e-12 M Concentration.; format: functional, cell-based; conditions: Anura
Melanocortin receptor 5 = Melanocortin receptor 5 (Homo sapiens, UniProt P33032); test: Displacement of [125I]NDP-MSH from Melanocortin 5 receptor at 10 uM
Melanocortin receptor 4 = Melanocortin receptor 4 (Homo sapiens, UniProt P32245); test: Displacement of [125I]NDP-MSH from Melanocortin 4 receptor at 10 uM
Melanocortin receptor 3 = Melanocortin receptor 3 (Homo sapiens, UniProt P41968); test: Displacement of [125I]NDP-MSH from Melanocortin 3 receptor at 10 uM
Melanocortin receptor 3, sequence (P41968 whole entry): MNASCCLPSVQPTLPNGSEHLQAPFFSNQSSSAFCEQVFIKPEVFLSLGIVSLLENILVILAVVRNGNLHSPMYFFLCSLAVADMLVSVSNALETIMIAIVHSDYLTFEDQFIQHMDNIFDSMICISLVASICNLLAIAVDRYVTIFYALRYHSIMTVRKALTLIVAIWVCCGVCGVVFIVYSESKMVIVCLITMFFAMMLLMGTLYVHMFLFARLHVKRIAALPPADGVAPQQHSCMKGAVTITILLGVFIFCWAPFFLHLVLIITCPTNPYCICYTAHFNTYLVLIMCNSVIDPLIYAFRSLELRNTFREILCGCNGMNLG

[2] = target: T1, Melanocyte-stimulating hormone receptor (Homo sapiens, UniProt Q01726); test: Displacement of [125I]NDP-MSH from Melanocortin 1 receptor at 10 uM
T1 sequence (Q01726 whole entry): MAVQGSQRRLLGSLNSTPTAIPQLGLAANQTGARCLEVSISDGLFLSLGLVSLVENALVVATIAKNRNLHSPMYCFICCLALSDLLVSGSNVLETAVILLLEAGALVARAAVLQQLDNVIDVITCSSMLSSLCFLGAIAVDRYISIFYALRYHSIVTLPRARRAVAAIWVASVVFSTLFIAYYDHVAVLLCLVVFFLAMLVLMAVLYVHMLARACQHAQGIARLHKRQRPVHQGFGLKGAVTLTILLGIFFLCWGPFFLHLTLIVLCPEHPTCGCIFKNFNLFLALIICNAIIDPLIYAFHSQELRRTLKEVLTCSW

MCR [3] = test: Effective concentration was measured against frog skin(MCR) cells at 10 e-4 10 e-12 M Concentration.; format: functional, cell-based; conditions: Anura
[4] = target: T1, Melanocyte-stimulating hormone receptor; test: effective concentration of peptide at 50% maximal cAMP accumulation on Melanocortin 1 receptor; format: functional

Melanocortin receptor 5, sequence (P33032 whole entry): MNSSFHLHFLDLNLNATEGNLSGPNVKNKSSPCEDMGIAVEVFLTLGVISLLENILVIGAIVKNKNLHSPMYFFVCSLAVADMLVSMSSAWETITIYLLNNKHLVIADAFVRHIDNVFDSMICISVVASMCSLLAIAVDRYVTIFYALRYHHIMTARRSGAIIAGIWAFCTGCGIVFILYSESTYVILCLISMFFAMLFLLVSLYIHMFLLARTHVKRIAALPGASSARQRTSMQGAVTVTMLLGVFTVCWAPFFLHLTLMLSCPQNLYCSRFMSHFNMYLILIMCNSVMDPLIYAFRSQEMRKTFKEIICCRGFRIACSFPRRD
Melanocortin receptor 4, sequence (P32245 whole entry): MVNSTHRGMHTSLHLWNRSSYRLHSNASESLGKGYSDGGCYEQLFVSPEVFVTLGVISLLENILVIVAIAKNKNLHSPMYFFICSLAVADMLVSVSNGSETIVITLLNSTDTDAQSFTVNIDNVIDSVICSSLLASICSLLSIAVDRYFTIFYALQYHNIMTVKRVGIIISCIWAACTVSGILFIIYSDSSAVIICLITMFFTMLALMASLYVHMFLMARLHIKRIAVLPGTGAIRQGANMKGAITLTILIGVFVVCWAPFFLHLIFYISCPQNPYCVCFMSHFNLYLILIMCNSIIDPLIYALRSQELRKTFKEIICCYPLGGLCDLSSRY

SMILES | EC50 (MCR [1]) [µM] | IC50 (Melanocortin receptor 5) [µM] | IC50 (Melanocortin receptor 4) [µM] | IC50 (Melanocortin receptor 3) [µM] | IC50 [2] [µM] | EC50 (MCR [3]) [µM] | EC50 [4] [µM]
CC(=O)N[C@H](Cc1ccccc1)C(=O)N[C@H](CCCN=C(N)N)C(=O)N[C@@H](Cc1c[nH]c2ccccc12)C(N)=O | 5.5 | > 10 | > 10 | > 10 | > 10 |  | 
CC(=O)N[C@@H](Cc1ccccc1)C(=O)N[C@H](CCCN=C(N)N)C(=O)N[C@H](Cc1c[nH]c2ccccc12)C(N)=O | > 100 | > 10 | > 10 | > 10 | > 10 |  | 
CC(=O)N[C@H](Cc1ccccc1)C(=O)N[C@@H](CCCN=C(N)N)C(=O)N[C@@H](Cc1c[nH]c2ccccc12)C(N)=O |  | > 10 | 2.08 | > 10 | > 10 | 30 | 
CC(=O)N[C@@H](Cc1c[nH]cn1)C(=O)N[C@@H](Cc1ccccc1)C(=O)N[C@@H](CCCN=C(N)N)C(=O)N[C@H](Cc1c[nH]c2ccccc12)C(N)=O | 2 | > 10 |  | > 10 | 6.35 |  | 1.43
CC(=O)N[C@@H](Cc1cnc[nH]1)C(=O)N[C@H](Cc1ccccc1)C(=O)N[C@@H](CCCNC(=N)N)C(=O)N[C@@H](Cc1c[nH]c2ccccc12)C(N)=O | 0.2 | > 10 |  | > 10 | 0.615 |  | 0.228
CC(=O)N[C@@H](Cc1ccccc1)C(=O)N[C@@H](CCCNC(=N)N)C(=O)N[C@H](Cc1c[nH]c2ccccc12)C(N)=O | > 100 | > 10 | > 10 | > 10 | > 10 |  | 
CC(=O)N[C@@H](Cc1c[nH]cn1)C(=O)N[C@H](Cc1ccccc1)C(=O)N[C@H](CCCN=C(N)N)C(=O)N[C@H](Cc1c[nH]c2ccccc12)C(N)=O | 1.9 | > 10 |  | > 10 | > 10 |  | 
CC(=O)NCC(=O)N[C@H](Cc1ccccc1)C(=O)N[C@@H](CCCN=C(N)N)C(=O)N[C@H](Cc1c[nH]c2ccccc12)C(N)=O | 4.2 | > 10 | > 10 | > 10 | > 10 |  | 
CC(=O)N[C@H](Cc1ccccc1)C(=O)N[C@@H](CCCNC(=N)N)C(=O)N[C@H](Cc1c[nH]c2ccccc12)C(N)=O |  | > 10 | 9.16 | > 10 | > 10 | 1.5 | 
CC(=O)N[C@H](Cc1ccccc1)C(=O)N[C@H](CCCNC(=N)N)C(=O)N[C@H](Cc1c[nH]c2ccccc12)C(N)=O | > 100 | > 10 | > 10 | > 10 | > 10 |  | 
CC(=O)N[C@@H](Cc1c[nH]cn1)C(=O)N[C@H](Cc1ccccc1)C(=O)N[C@H](CCCN=C(N)N)C(=O)N[C@@H](Cc1c[nH]c2ccccc12)C(N)=O | 10 | > 10 |  | > 10 | > 10 |  | 
